Where two headings read alike, the source gives them in different places.
Test: Phase 1 clinical trial: plasma pharmacokinetics
Assay type: in vivo, human
Conditions: for Tmax / half-life / Cmax / AUC / AUC(0-t): human, plasma, oral; for half-life: read-out: Effective T1/2 (converted); for AUC: tau = 24 hours
Method: Summary statistics based on preliminary data were obtained for the pharmacokinetics of Compound 1 in patients receiving once-daily doses ranging from 20 mg to 240 mg (Table 5). The mean plasma concentration-time curves of Compound 1 in the once-daily dose groups ranging from 20 mg to 240 mg are shown in Figure 11. In this study, one cycle consists of 28 days, and Cycle 1 Day 1 refers to Day 1 of the first cycle. […] Accumulation was observed after repeated administration. […] Based on these accumulation ratios, the half-life of Compound 1 was estimated to be approximately 4 days. Based on the currently available data, plasma concentrations are considered to have reached steady state by Day 15.
Summary statistics based on preliminary data were obtained for the pharmacokinetics of Compound 1 in patients in the 20 mg QD, 40 mg QD, 80 mg QD, 120 mg QD, 180 mg QD, 240 mg QD, 360 mg QD, and 480 mg daily (240 mg BID) dose groups (Table 6). The mean plasma concentration-time curves of Compound 1 in the 20 mg QD to 480 mg daily (240 mg BID) dose groups are shown in Figure 12 (in Figure 12, Compound 1 is denoted as "DSP-0390"). In this study, one cycle consists of 28 days, and Cycle 1 Day 1 refers to Day 1 of the first cycle. […] The median Tmax ranged from 2 to 8 hours. Accumulation was observed after repeated administration, and assuming linearity based on the observed accumulation ratios, the estimated elimination half-life was considered to be on the order of several days (approximately 1 to 6 days) (data cut-off: March 2024).

[1] = 480 mg (240 mg BID), cut-off March 2024

## CC1(C)Oc2cc(Cl)ccc2[C@@H]2OCC3(CCN(CCn4ccnc4)CC3)C[C@H]21 [Compound 1, (4'aR,10'bR)-8'-chloro-1-[2-(1H-imidazol-1-yl)ethyl]-5',5'-dimethyl-4'a,10'b-dihydro-2'H,4'H,5'H-spiro[piperidine-4,3'-pyrano[3,2-c][1]benzopyran] diphosphate]
20 mg QD, cut-off March 2024
  AR AUC (accumulation ratio): 7.31
  AR Cmax (accumulation ratio): 6.52
20 mg, QD, cut-off April 2023
  AR AUC (mean accumulation ratio): 7.4
  AR Cmax (mean accumulation ratio): 6.1
40 mg QD, cut-off March 2024
  AR AUC (accumulation ratio): 8.93
  AR Cmax (accumulation ratio): 6.04
40 mg, QD, cut-off April 2023
  AR AUC (mean accumulation ratio): 8.6
  AR Cmax (mean accumulation ratio): 6.2
80 mg QD, cut-off March 2024
  AR AUC (accumulation ratio): 4.47
  AR Cmax (accumulation ratio): 3.70
80 mg, QD, cut-off April 2023
  AR AUC (mean accumulation ratio): 6.9
  AR Cmax (mean accumulation ratio): 5.8
120 mg QD, cut-off March 2024
  AR AUC (accumulation ratio): 4.52
  AR Cmax (accumulation ratio): 3.53
120 mg, QD, cut-off April 2023
  AR AUC (mean accumulation ratio): 5.3
  AR Cmax (mean accumulation ratio): 4.6
180 mg QD, cut-off March 2024
  AR AUC (accumulation ratio): 3.55
  AR Cmax (accumulation ratio): 1.89
180 mg, QD, N=1, cut-off April 2023
  AR AUC (mean accumulation ratio): 3.9
180 mg, QD, cut-off April 2023
  AR Cmax (mean accumulation ratio): 2
240 mg QD, cut-off March 2024
  AR AUC (accumulation ratio): 3.29
  AR Cmax (accumulation ratio): 1.79
240 mg, QD, N=1, cut-off April 2023
  AR AUC (mean accumulation ratio): 3.9
240 mg, QD, cut-off April 2023
  AR Cmax (mean accumulation ratio): 2.6
360 mg QD, cut-off March 2024
  AR AUC (accumulation ratio): 2.07
  AR Cmax (accumulation ratio): 1.36
[1]
  AR AUC (accumulation ratio): 1.61
  AR Cmax (accumulation ratio): 2.42
cut-off April 2023
  half-life estimated from accumulation ratios: approximately 4 days
20 mg QD to 480 mg daily (240 mg BID), cut-off March 2024, read-out: median Tmax, range over dose groups
  Tmax: 2 to 8 h
20 mg, 20 mg QD, cut-off March 2024
  half-life: 113 h
20 mg, Cycle 1, Day 1, 20 mg QD, cut-off March 2024, read-out: Cmax
  Cmax: 4.28 ng/mL
20 mg, Cycle 1, Day 1, 20 mg QD, cut-off March 2024, read-out: Tmax [a] median value
  Tmax: 6 h
20 mg, Cycle 1, Day 1, 20 mg QD, cut-off March 2024, read-out: AUCtau [b]
  AUC: 76.6 ng·h/mL
20 mg, Cycle 1 Day 1, 20 mg, QD, cut-off April 2023, read-out: AUC0-24 (geometric mean)
  AUC(0-t): 76 ng·h/mL
20 mg, Cycle 1 Day 1, 20 mg, QD, cut-off April 2023, read-out: AUC0-24 (mean)
  AUC(0-t): 77 ng·h/mL
20 mg, Cycle 1 Day 1, 20 mg, QD, cut-off April 2023, read-out: AUC0-24 (median)
  AUC(0-t): 77 ng·h/mL
20 mg, Cycle 1 Day 1, 20 mg, QD, cut-off April 2023, read-out: Cmax (geometric mean)
  Cmax: 4 ng/mL
20 mg, Cycle 1 Day 1, 20 mg, QD, cut-off April 2023, read-out: Cmax (mean)
  Cmax: 4 ng/mL
20 mg, Cycle 1 Day 1, 20 mg, QD, cut-off April 2023, read-out: Cmax (median)
  Cmax: 4 ng/mL
20 mg, Cycle 1 Day 1, 20 mg, QD, cut-off April 2023, read-out: Tmax (mean)
  Tmax: 6 h
20 mg, Cycle 1 Day 1, 20 mg, QD, cut-off April 2023, read-out: Tmax (median)
  Tmax: 6 h
20 mg, Cycle 2, Day 1, 20 mg QD, cut-off March 2024, read-out: Cmax,ss
  Cmax: 27.9 ng/mL
20 mg, Cycle 2, Day 1, 20 mg QD, cut-off March 2024, read-out: Tmax,ss [a] median value
  Tmax: 7 h
20 mg, Cycle 2, Day 1, 20 mg QD, cut-off March 2024, read-out: AUCtau,ss [b]
  AUC: 560 ng·h/mL
20 mg, Cycle 2 Day 1, 20 mg, QD, cut-off April 2023, read-out: AUC0-24 (geometric mean)
  AUC(0-t): 557 ng·h/mL
20 mg, Cycle 2 Day 1, 20 mg, QD, cut-off April 2023, read-out: AUC0-24 (mean)
  AUC(0-t): 561 ng·h/mL
20 mg, Cycle 2 Day 1, 20 mg, QD, cut-off April 2023, read-out: AUC0-24 (median)
  AUC(0-t): 561 ng·h/mL
20 mg, Cycle 2 Day 1, 20 mg, QD, cut-off April 2023, read-out: Cmax (geometric mean)
  Cmax: 28 ng/mL
20 mg, Cycle 2 Day 1, 20 mg, QD, cut-off April 2023, read-out: Cmax (mean)
  Cmax: 28 ng/mL
20 mg, Cycle 2 Day 1, 20 mg, QD, cut-off April 2023, read-out: Cmax (median)
  Cmax: 28 ng/mL
20 mg, Cycle 2 Day 1, 20 mg, QD, cut-off April 2023, read-out: Tmax (mean)
  Tmax: 7 h
20 mg, Cycle 2 Day 1, 20 mg, QD, cut-off April 2023, read-out: Tmax (median)
  Tmax: 7 h
40 mg, 40 mg QD, cut-off March 2024
  half-life: 139 h
40 mg, Cycle 1, Day 1, 40 mg QD, cut-off March 2024, read-out: Cmax
  Cmax: 9.87 ng/mL
40 mg, Cycle 1, Day 1, 40 mg QD, cut-off March 2024, read-out: Tmax [a] median value
  Tmax: 8 h
40 mg, Cycle 1, Day 1, 40 mg QD, cut-off March 2024, read-out: AUCtau [b]
  AUC: 131 ng·h/mL
40 mg, Cycle 1 Day 1, 40 mg, QD, cut-off April 2023, read-out: AUC0-24 (geometric mean)
  AUC(0-t): 123 ng·h/mL
40 mg, Cycle 1 Day 1, 40 mg, QD, cut-off April 2023, read-out: AUC0-24 (mean)
  AUC(0-t): 132 ng·h/mL
40 mg, Cycle 1 Day 1, 40 mg, QD, cut-off April 2023, read-out: AUC0-24 (median)
  AUC(0-t): 107 ng·h/mL
40 mg, Cycle 1 Day 1, 40 mg, QD, cut-off April 2023, read-out: Cmax (geometric mean)
  Cmax: 8 ng/mL
40 mg, Cycle 1 Day 1, 40 mg, QD, cut-off April 2023, read-out: Cmax (mean)
  Cmax: 10 ng/mL
40 mg, Cycle 1 Day 1, 40 mg, QD, cut-off April 2023, read-out: Cmax (median)
  Cmax: 7 ng/mL
40 mg, Cycle 1 Day 1, 40 mg, QD, cut-off April 2023, read-out: Tmax (mean)
  Tmax: 11 h
40 mg, Cycle 1 Day 1, 40 mg, QD, cut-off April 2023, read-out: Tmax (median)
  Tmax: 8 h
40 mg, Cycle 2, Day 1, 40 mg QD, cut-off March 2024, read-out: Cmax,ss
  Cmax: 59.6 ng/mL
40 mg, Cycle 2, Day 1, 40 mg QD, cut-off March 2024, read-out: Tmax,ss [a] median value
  Tmax: 4 h
40 mg, Cycle 2, Day 1, 40 mg QD, cut-off March 2024, read-out: AUCtau,ss [b]
  AUC: 1170 ng·h/mL
40 mg, Cycle 2 Day 1, 40 mg, QD, cut-off April 2023, read-out: AUC0-24 (geometric mean)
  AUC(0-t): 1110 ng·h/mL
40 mg, Cycle 2 Day 1, 40 mg, QD, cut-off April 2023, read-out: AUC0-24 (mean)
  AUC(0-t): 1180 ng·h/mL
40 mg, Cycle 2 Day 1, 40 mg, QD, cut-off April 2023, read-out: AUC0-24 (median)
  AUC(0-t): 1370 ng·h/mL
40 mg, Cycle 2 Day 1, 40 mg, QD, cut-off April 2023, read-out: Cmax (geometric mean)
  Cmax: 56 ng/mL
40 mg, Cycle 2 Day 1, 40 mg, QD, cut-off April 2023, read-out: Cmax (mean)
  Cmax: 60 ng/mL
40 mg, Cycle 2 Day 1, 40 mg, QD, cut-off April 2023, read-out: Cmax (median)
  Cmax: 72 ng/mL
40 mg, Cycle 2 Day 1, 40 mg, QD, cut-off April 2023, read-out: Tmax (mean)
  Tmax: 5 h
40 mg, Cycle 2 Day 1, 40 mg, QD, cut-off April 2023, read-out: Tmax (median)
  Tmax: 4 h
80 mg, 80 mg QD, cut-off March 2024
  half-life: 64.8 h
80 mg, Cycle 1, Day 1, 80 mg QD, cut-off March 2024, read-out: Cmax
  Cmax: 17.1 ng/mL
80 mg, Cycle 1, Day 1, 80 mg QD, cut-off March 2024, read-out: Tmax [a] median value
  Tmax: 8 h
80 mg, Cycle 1, Day 1, 80 mg QD, cut-off March 2024, read-out: AUCtau [b]
  AUC: 264 ng·h/mL
80 mg, Cycle 1 Day 1, 80 mg, QD, cut-off April 2023, read-out: AUC0-24 (geometric mean)
  AUC(0-t): 203 ng·h/mL
80 mg, Cycle 1 Day 1, 80 mg, QD, cut-off April 2023, read-out: AUC0-24 (mean)
  AUC(0-t): 268 ng·h/mL
80 mg, Cycle 1 Day 1, 80 mg, QD, cut-off April 2023, read-out: AUC0-24 (median)
  AUC(0-t): 205 ng·h/mL
80 mg, Cycle 1 Day 1, 80 mg, QD, cut-off April 2023, read-out: Cmax (geometric mean)
  Cmax: 13 ng/mL
80 mg, Cycle 1 Day 1, 80 mg, QD, cut-off April 2023, read-out: Cmax (mean)
  Cmax: 17 ng/mL
80 mg, Cycle 1 Day 1, 80 mg, QD, cut-off April 2023, read-out: Cmax (median)
  Cmax: 15 ng/mL
80 mg, Cycle 1 Day 1, 80 mg, QD, cut-off April 2023, read-out: Tmax (mean)
  Tmax: 8 h
80 mg, Cycle 1 Day 1, 80 mg, QD, cut-off April 2023, read-out: Tmax (median)
  Tmax: 8 h
80 mg, Cycle 2, Day 1, 80 mg QD, cut-off March 2024, read-out: Cmax,ss
  Cmax: 63.2 ng/mL
80 mg, Cycle 2, Day 1, 80 mg QD, cut-off March 2024, read-out: Tmax,ss [a] median value
  Tmax: 8 h
80 mg, Cycle 2, Day 1, 80 mg QD, cut-off March 2024, read-out: AUCtau,ss [b]
  AUC: 1180 ng·h/mL
80 mg, Cycle 2 Day 1, 80 mg, QD, cut-off April 2023, read-out: AUC0-24 (geometric mean)
  AUC(0-t): 1100 ng·h/mL
80 mg, Cycle 2 Day 1, 80 mg, QD, cut-off April 2023, read-out: AUC0-24 (mean)
  AUC(0-t): 1190 ng·h/mL
80 mg, Cycle 2 Day 1, 80 mg, QD, cut-off April 2023, read-out: AUC0-24 (median)
  AUC(0-t): 1110 ng·h/mL
80 mg, Cycle 2 Day 1, 80 mg, QD, cut-off April 2023, read-out: Cmax (geometric mean)
  Cmax: 58 ng/mL
80 mg, Cycle 2 Day 1, 80 mg, QD, cut-off April 2023, read-out: Cmax (mean)
  Cmax: 63 ng/mL

— EP4806435A1, “DIHYDROCHROMENE-DERIVATIVE-CONTAINING THERAPEUTIC AGENT FOR CANCER” (Sumitomo Pharma Co., Ltd., priority 2023, dated 2025)
